The source of these data is patent US11149031B2, “Substituted N-(3-fluoropropyl)-pyrrolidine compounds, processes for their preparation and therapeutic uses thereof” (SANOFI, priority 2016, dated 2021).

For experiment [1], the system named is MCF7 cells expressing mutant estrogen receptor Tyr 537 Ser. Briefly: Test B: cell proliferation/viability assay (CellTiter-Glo) on MCF7 Tyr 537 Ser mutant. To be noted: Homo sapiens, MCF7, 168 h, MCF7 cells expressing ER Tyr 537 Ser mutant, 7 days of compound exposure, read-out: proliferation MCF7 Y537S IC50. In kind it is cell-based. Summed up: (§1)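 MCF7 WT / ER mutant lines (estradiol-independent, Tyr537Ser or Asp538Gly); stripped-serum, phenol red-free MEM; 9 pt 1:5 dil, 3-0.000001 μM final; 7 d; CellTiter-Glo RLU → % viability vs untreated, background-subtracted.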

For a further experiment, the target named is ERα in MCF7 cells (Homo sapiens (Human), UniProt P03372). Briefly: Test C: estrogen receptor degradation activity, ERα in cell western assay in MCF7 cells. In kind it is cell-based. The settings on record: for DC50: 4 hours post compound addition, ERα in cell western, read-out: Degradation IC50; for % Degradation at 3 μM: 4 hours, relative to fulvestrant. Summed up: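 Cells seeded in stripped-serum medium are dosed the next day across a nine-concentration series (3 down to 0.000018 μM). Four hours later they are fixed, blocked, probed overnight with anti-ERα antibody, then labelled with an Alexa 488 secondary and a DNA dye before plate scanning.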
Sequence of ERα in MCF7 cells (P03372 whole entry): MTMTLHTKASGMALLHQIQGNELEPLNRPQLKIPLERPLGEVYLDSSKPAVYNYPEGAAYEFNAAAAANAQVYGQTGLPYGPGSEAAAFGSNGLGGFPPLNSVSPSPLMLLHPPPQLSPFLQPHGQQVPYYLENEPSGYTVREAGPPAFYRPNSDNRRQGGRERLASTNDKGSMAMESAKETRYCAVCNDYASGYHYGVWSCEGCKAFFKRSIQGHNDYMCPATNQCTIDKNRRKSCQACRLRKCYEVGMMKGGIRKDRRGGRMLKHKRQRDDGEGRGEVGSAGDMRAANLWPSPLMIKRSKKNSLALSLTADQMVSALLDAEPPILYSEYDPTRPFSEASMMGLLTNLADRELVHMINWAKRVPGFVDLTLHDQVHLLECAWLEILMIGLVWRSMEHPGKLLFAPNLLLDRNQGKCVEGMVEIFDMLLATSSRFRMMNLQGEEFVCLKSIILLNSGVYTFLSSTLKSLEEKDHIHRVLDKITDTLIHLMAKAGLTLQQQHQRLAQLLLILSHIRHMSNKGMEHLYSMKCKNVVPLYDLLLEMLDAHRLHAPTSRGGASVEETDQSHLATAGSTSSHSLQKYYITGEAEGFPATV

Experiment [2] relates to MCF7 cells expressing mutant estrogen receptor Asp 538 Gly. Briefly: Test B: cell proliferation/viability assay (CellTiter-Glo) on MCF7 Asp 538 Gly mutant. To be noted: Homo sapiens, MCF7, 168 h, MCF7 cells expressing ER Asp 538 Gly mutant, 7 days of compound exposure, read-out: proliferation MCF7 D538G IC50. In kind it is cell-based. Summed up:
as §1

Experiment [3] relates to MCF7 cells (breast tumor cells) WT. Briefly: Test B: cell proliferation/viability assay (CellTiter-Glo) on MCF7 WT. In kind it is cell-based. To be noted: Homo sapiens, MCF7, 168 h, 7 days of compound exposure. Summed up: as §1
The target in experiment [4] is His6-ERα298-554 WT (ERα ligand-binding domain) (Homo sapiens (Human), UniProt P03372). Put plainly: Test A: biochemical antagonist activity, LanthaScreen TR-FRET ERα coactivator assay, WT. To be noted: read-out: Antagonism WT IC50. Summed up:
(§2)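 TR-FRET 520:495 nm emission ratio read after overnight room-temperature incubation; IC50 derived by 4-parameter logistic fit. Mix: 0.5 nM receptor LBD, 0.5 nM Tb-His6 antibody, 250 nM PGC1a peptide, 3 nM or 10 nM estradiol, pH 7.4 phosphate buffer.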

Experiment [5] concerns the target His6-ERα298-554 Y537S mutant (ERα ligand-binding domain) (Homo sapiens (Human), UniProt P03372, Y537S). Briefly: Test A: biochemical antagonist activity, LanthaScreen TR-FRET ERα coactivator assay, Y537S mutant. To be noted: read-out: Antagonism Y537S IC50. The procedure, abridged: as §2
In experiment [6] the target is His6-ERα298-554 D538G mutant (ERα ligand-binding domain) (Homo sapiens (Human), UniProt P03372, D538G). Put plainly: Test A: biochemical antagonist activity, LanthaScreen TR-FRET ERα coactivator assay, D538G mutant. To be noted: read-out: Antagonism D538G IC50. Summed up: as §2
Sequence of His6-ERα298-554 D538G mutant (ERα ligand-binding domain) (P03372 298-554 D538G): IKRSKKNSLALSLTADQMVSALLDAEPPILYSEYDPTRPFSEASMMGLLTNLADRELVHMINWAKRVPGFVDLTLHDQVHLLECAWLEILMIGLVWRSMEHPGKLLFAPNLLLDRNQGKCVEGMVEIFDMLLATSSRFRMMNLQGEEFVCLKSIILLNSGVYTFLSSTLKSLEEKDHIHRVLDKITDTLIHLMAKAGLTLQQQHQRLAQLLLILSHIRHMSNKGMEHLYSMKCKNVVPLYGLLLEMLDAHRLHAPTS
The mark [7] stands for this setting: asterisk (*): protocol using 10 nM estradiol.

Where two headings read alike, the source gives them in different places.

Sequence of His6-ERα298-554 WT (ERα ligand-binding domain) (P03372 298-554): as the sequence (P03372 298-554 D538G) above, with G241D counted along it
Sequence of His6-ERα298-554 Y537S mutant (ERα ligand-binding domain) (P03372 298-554 Y537S): as the sequence (P03372 298-554 D538G) above, with Y240S, G241D counted along it

As to `CCOc1ccc(C2=C(c3ccc(O[C@H]4CCN(CCCF)C4)nc3)c3ccc(O)cc3SC2)c(F)n1` [Example 79, 3-(6-ethoxy-2-fluoro-3-pyridyl)-4-[6-[(3S)-1-(3-fluoropropyl)pyrrolidin-3-yl]oxy-3-pyridyl]-2H-thiochromen-7-ol], the IC50 was 0.8 nM in experiment [1]; 5 nM in experiment [2]; 0.3 nM in experiment [3]; 0.5 nM in experiment [4] (setting [7]); 5 nM in experiment [5] (setting [7]); 6 nM in experiment [6] (setting [7]). Moreover, the DC50 at ERα in MCF7 cells was determined as 0.2 nM. In addition, the “% Degradation at 3 μM” value on ERα in MCF7 cells came out at 89%.
On to `Oc1ccc2c(c1)SCC(c1ccc(OC(F)(F)F)cc1)=C2c1ccc(O[C@H]2CCN(CCCF)C2)nc1` [Example 80, 4-[6-[(3S)-1-(3-fluoropropyl)pyrrolidin-3-yl]oxy-3-pyridyl]-3-[4-(trifluoromethoxy)phenyl]-2H-thiochromen-7-ol], for which the IC50 in experiment [1] came to 3 nM; in experiment [2], 0.4 nM; in experiment [3], 0.3 nM; in experiment [4] (setting [7]) it was 12 nM; in experiment [5] (setting [7]) it was 154 nM; in experiment [6] (setting [7]), 283 nM. The DC50 on ERα in MCF7 cells came out at 0.2 nM. Further, the “% Degradation at 3 μM” value on ERα in MCF7 cells stood at 89%.
Regarding `Oc1ccc2c(c1)OCC(c1ccc(Cl)cc1Cl)=C2c1ccc(O[C@H]2CCN(CCCF)C2)cc1` [Example 81, 3-(2,4-dichlorophenyl)-4-[4-[(3S)-1-(3-fluoropropyl)pyrrolidin-3-yl]oxyphenyl]-2H-chromen-7-ol], the IC50 in experiment [1] was 17 nM; in experiment [2], 3.5 nM; in experiment [3], 18 nM; in experiment [4] (setting [7]), 520 nM; in experiment [5] (setting [7]) it was more than 4000 nM; in experiment [6] (setting [7]) it was more than 4000 nM. Besides, the DC50 at ERα in MCF7 cells worked out at 7 nM. Further, the “% Degradation at 3 μM” value on ERα in MCF7 cells worked out at 77%.
Regarding `Oc1ccc2c(c1)OCC(c1ccc(F)cc1Cl)=C2c1ccc(O[C@H]2CCN(CCCF)C2)cc1` [Example 82, 3-(2-chloro-4-fluoro-phenyl)-4-[4-[(3S)-1-(3-fluoropropyl)pyrrolidin-3-yl]oxyphenyl]-2H-chromen-7-ol], the IC50 was 18 nM in experiment [1]; 1 nM in experiment [2]; 15 nM in experiment [3]; 297 nM in experiment [4] (setting [7]); 2290 nM in experiment [5] (setting [7]); more than 4000 nM in experiment [6] (setting [7]). Further, the DC50 on ERα in MCF7 cells turned out to be 7 nM. Besides, the “% Degradation at 3 μM” value at ERα in MCF7 cells turned out to be 86%.
Turning to `Oc1ccc(C2=C(c3ccc(O[C@H]4CCN(CCCF)C4)cc3)c3ccc(O)cc3OC2)cc1` [Example 83, 4-[4-[(3S)-1-(3-fluoropropyl)pyrrolidin-3-yl]oxyphenyl]-3-(4-hydroxyphenyl)-2H-chromen-7-ol], the IC50 in experiment [1] amounted to 18 nM; in experiment [2], 13 nM; in experiment [3], 2 nM; in experiment [4] (protocol with 3 nM estradiol) it was 81 nM; in experiment [5] (protocol with 3 nM estradiol), 1160 nM; in experiment [6] (protocol with 3 nM estradiol), 1320 nM. On ERα in MCF7 cells, the DC50 was 2 nM. The “% Degradation at 3 μM” value at ERα in MCF7 cells came to 75%.
Regarding `Oc1ccc2c(c1)C(c1ccc(N[C@H]3CCN(CCCF)C3)cc1)=C(c1ccc(F)cc1Cl)CC2` [Example 84, 7-(2-chloro-4-fluoro-phenyl)-8-[4-[[(3S)-1-(3-fluoropropyl)pyrrolidin-3-yl]amino]phenyl]-5,6-dihydronaphthalen-2-ol], the IC50 was found to be 6 nM in experiment [1]; 2 nM in experiment [2]; 0.4 nM in experiment [3]; 30 nM in experiment [4] (protocol with 3 nM estradiol); 958 nM in experiment [5] (protocol with 3 nM estradiol); 1750 nM in experiment [6] (protocol with 3 nM estradiol). On ERα in MCF7 cells, the DC50 came out at 2 nM. For the same molecule, the “% Degradation at 3 μM” value on ERα in MCF7 cells worked out at 78%.
Take `Oc1ccc2c(c1)CCCC(c1ccc(Cl)cc1Cl)=C2c1ccc(N[C@H]2CCN(CCCF)C2)cc1` [Example 85, 6-(2,4-dichlorophenyl)-5-[4-[[(3S)-1-(3-fluoropropyl)pyrrolidin-3-yl]amino]phenyl]-8,9-dihydro-7H-benzo[7]annulen-2-ol]: the IC50 in experiment [1] is 7 nM; in experiment [2], 0.7 nM; in experiment [3] it was 0.4 nM; in experiment [4] (setting [7]), 1 nM; in experiment [5] (setting [7]), 15 nM; in experiment [6] (setting [7]), 21 nM. Also, on ERα in MCF7 cells, the DC50 was found to be 1 nM. Further, the “% Degradation at 3 μM” value at ERα in MCF7 cells is listed as 86%.
In the case of `CCOc1ccc(C2=C(c3ccc(N[C@H]4CCN(CCCF)C4)cc3)c3ccc(O)cc3CCC2)c(F)n1` [Example 86, 6-(6-ethoxy-2-fluoro-3-pyridyl)-5-[4-[[(3S)-1-(3-fluoropropyl)pyrrolidin-3-yl]amino]phenyl]-8,9-dihydro-7H-benzo[7]annulen-2-ol], the IC50 in experiment [1] is 1 nM; in experiment [2], 0.2 nM; in experiment [3] it was 0.2 nM; in experiment [4] (setting [7]) it was 0.5 nM; in experiment [5] (setting [7]), 5 nM; in experiment [6] (setting [7]), 7 nM. Moreover, the DC50 at ERα in MCF7 cells is 0.5 nM. The “% Degradation at 3 μM” value on ERα in MCF7 cells came out at 95%.
Regarding `Oc1ccc2c(c1)CCCC(c1ccc(OC(F)(F)F)cc1)=C2c1ccc(N[C@H]2CCN(CCCF)C2)cc1` [Example 87, 5-[4-[[(3S)-1-(3-fluoropropyl)pyrrolidin-3-yl]amino]phenyl]-6-[4-(trifluoromethoxy)phenyl]-8,9-dihydro-7H-benzo[7]annulen-2-ol], the IC50 in experiment [1] stood at 3 nM; in experiment [2], 1 nM; in experiment [3], 0.2 nM; in experiment [4] (setting [7]), 23 nM; in experiment [5] (setting [7]) it was 294 nM; in experiment [6] (setting [7]) it was 568 nM. Further, the DC50 on ERα in MCF7 cells is 0.4 nM. Further, the “% Degradation at 3 μM” value at ERα in MCF7 cells came out at 83%.
`Oc1ccc2c(c1)CCCC(c1ccc(OC(F)(F)F)cc1F)=C2c1ccc(N[C@H]2CCN(CCCF)C2)cc1` [Example 88, 5-[4-[[(3S)-1-(3-fluoropropyl)pyrrolidin-3-yl]amino]phenyl]-6-[2-fluoro-4-(trifluoromethoxy)phenyl]-8,9-dihydro-7H-benzo[7]annulen-2-ol]: the IC50 in experiment [1] worked out at 3 nM; in experiment [2], 0.6 nM; in experiment [3], 0.3 nM; in experiment [4] (setting [7]), 12 nM; in experiment [5] (setting [7]) it was 159 nM; in experiment [6] (setting [7]), 293 nM. Also, at ERα in MCF7 cells, the DC50 came out at 0.2 nM. Moreover, the “% Degradation at 3 μM” value on ERα in MCF7 cells came out at 88%.
Turning to `CC(C)(C)c1ccc(C2=C(c3ccc(N[C@H]4CCN(CCCF)C4)cc3)c3ccc(O)cc3CCC2)cc1` [Example 89, 6-(4-tert-butylphenyl)-5-[4-[[(3S)-1-(3-fluoropropyl)pyrrolidin-3-yl]amino]phenyl]-8,9-dihydro-7H-benzo[7]annulen-2-ol], the IC50 in experiment [1] came out at 5 nM; in experiment [2], 1 nM; in experiment [3], 0.4 nM; in experiment [4] (setting [7]), 27 nM; in experiment [5] (setting [7]) it was 423 nM; in experiment [6] (setting [7]) it was 726 nM. Also, the DC50 at ERα in MCF7 cells was 1 nM. The “% Degradation at 3 μM” value on ERα in MCF7 cells came out at 91%.
For `Oc1ccc2c(c1)CCCC(c1ccc(SC(F)(F)F)cc1)=C2c1ccc(N[C@H]2CCN(CCCF)C2)cc1` [Example 90, 5-[4-[[(3S)-1-(3-fluoropropyl)pyrrolidin-3-yl]amino]phenyl]-6-[4-(trifluoromethylsulfanyl)phenyl]-8,9-dihydro-7H-benzo[7]annulen-2-ol], the IC50 in experiment [1] is 4 nM; in experiment [2] it was 0.5 nM; in experiment [3] it was 0.3 nM; in experiment [4] (setting [7]) it was 12 nM; in experiment [5] (setting [7]), 165 nM; in experiment [6] (setting [7]), 293 nM. The DC50 on ERα in MCF7 cells was 0.4 nM. Further, the “% Degradation at 3 μM” value at ERα in MCF7 cells worked out at 91%.
As for `Cc1ccc(C2=C(c3ccc(O[C@H]4CCN(CCCF)C4)cc3)c3ccc(O)cc3OCC2)c(F)c1` [Example 96, 4-(2-fluoro-4-methyl-phenyl)-5-[4-[(3S)-1-(3-fluoropropyl)pyrrolidin-3-yl]oxyphenyl]-2,3-dihydro-1-benzoxepin-8-ol], the IC50 in experiment [1] is 16 nM; in experiment [2], 5 nM; in experiment [3], 2 nM; in experiment [4] (protocol with 3 nM estradiol), 7 nM; in experiment [5] (protocol with 3 nM estradiol), 19 nM; in experiment [6] (protocol with 3 nM estradiol), 47 nM. Moreover, the DC50 on ERα in MCF7 cells was 0.6 nM. Moreover, the “% Degradation at 3 μM” value on ERα in MCF7 cells is on record as 91%.
